Where “and” joins values, the source holds several entries; their conditions need not be identical. Identical values can stand only once. Like-named read-outs stand apart in the source and are kept apart here.

Consider four compounds from article PMC6602942, “Vertebrates originally possess four functional subtypes of G protein-coupled melatonin receptor” (Scientific Reports, 2019).

Assay [1] deals with T1, medaka MTNR1c (Oryzias latipes, UniProt A0A0D6A8H7). Briefly: cAMP-responsive (CRE-luc) reporter gene assay, agonist mode. The class given is cell-based. As to conditions: for RAA (%) MTNR1c (relative agonistic activity) / Emax: maximal activity as percentage of that of melatonin, Hepa-E1 cells, forskolin, ND: not detected; for Emax: read-out: RAA (%) MTNR1c (relative agonistic activity). From the text: (§1) Expression vectors for medaka mtnr genes, (pcDNA-OlMTNR1a, pcDNA-OlMTNR1b, pcDNA-OlMTNR1c and pcDNA-OlMTNR1a-like) were constructed by PCR amplification of the entire protein coding region, using primers which introduced in-frame Kozak sequence[33] at the 5′ end. A cyclic adenosine monophosphate (cAMP)-regulated reporter vector containing the luciferase gene under the control of a cAMP response element upstream of the TATA-like promoter region from the herpes simplex virus thymidine kinase promoter, named pCRE-luc, originated from the Pathway Profiling Luciferase System (Clontech). Hepa-E1 cells, i.e. epithelial-like Nile tilapia hepatocytes, were obtained from the Institute of Physical and Chemical Research (RIKEN) cell bank (Tsukuba, Japan). For MTNR1a, MTNR1b and MTNR1d, stable transfections were performed as described below. Hepa-E1 cells were seeded in 9 cm dishes prior to transfection. Both plasmids, pCRE-luc as well as expression vectors for medaka mtnrs were linearized by […] and transfected with X-tremeGENE 9 (Roche) according to the manufacturer’s instructions. Stably transfected cells were selected with G418. After selection, each colony was collected by pipetting. Sensitivity for cAMP in each clone was tested by forskolin treatment after seeding into 96-well plates with E-RDF medium (Kyokuto, Tokyo, Japan) and supplemented with 5% dextran-charcoal treated fetal bovine serum. After 24 h the cells were collected, and cellular luciferase activities were measured by luminescence assay with the Steady-Glo Assay System Kit (Promega) according to the manufacturer’s instructions. Forskolin-sensitive cell lines derived from co-transfection of pCRE-luc and pcDNA3.1(+) were developed as control lines and named null-CRE-luc. Forskolin-sensitive cell lines derived from co-transfection of pCRE-luc and each pcDNA-OlMTNR1 were selected for by sensitivity for melatonin.
T1 sequence (A0A0D6A8H7 entry or part of it): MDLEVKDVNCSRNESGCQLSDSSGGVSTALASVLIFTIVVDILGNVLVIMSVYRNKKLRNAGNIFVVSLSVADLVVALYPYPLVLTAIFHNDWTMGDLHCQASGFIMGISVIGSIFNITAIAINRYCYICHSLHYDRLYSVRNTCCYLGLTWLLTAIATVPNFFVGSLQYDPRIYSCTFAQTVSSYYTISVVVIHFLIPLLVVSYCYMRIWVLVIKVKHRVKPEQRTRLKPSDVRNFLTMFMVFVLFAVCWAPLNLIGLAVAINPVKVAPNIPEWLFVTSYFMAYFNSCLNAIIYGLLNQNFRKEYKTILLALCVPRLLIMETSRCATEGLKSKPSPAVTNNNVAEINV
(§2) For MTNR1c, transient transfection was performed as outlined below. The MTNR1c experiment was performed using Hepa-E1 cells in 9 cm dishes, which were transiently transfected by pcDNA-OlMTNR1c (500 ng) and pCRE-luc (5000 ng) by TransIT-X2 Dynamic Delivery System (Mirus) and incubated 24 h before seeding, following the manufacturer’s instructions. Cells derived from a chosen clone or MRNR1c-tranfected cells were seeded at 10^4 cells per well in 96-well luminometer plates. Then, cells were treated with test chemicals in triplicate at four-fold serial dilutions in the presence or absence of melatonin with 6.25 × 10^−7 M forskolin. For testing the antagonistic effect, reagents were mixed with melatonin at 90% effective concentration (EC90). Negative control wells were dosed with media plus 0.1% ethanol. Positive control wells were dosed with 1 μM melatonin. After 24 h, luciferase activities were measured as described above. Concentration-response curves were fitted and the EC50 or IC50 were calculated using sigmoidal fit in GraphPad Prism5. The relative agonistic activity (RAA) of each reagent was expressed as a percentage of the maximal activity for the reporter induction to that of melatonin. The antagonistic index (AI) of each reagent was expressed as a percentage of the maximal inhibition of the reagent. Maximal inhibition was calculated as the quotient of the subtraction of the luminescence for melatonin from the maximal luminescence for the reagent divided by the maximal inhibition of melatonin. When the reagent inhibits the transactivity to the same level of that of the vehicle control (forskolin), the AI equals 100%.

Assay [2] has as its target T2, medaka MTNR1b (Oryzias latipes, UniProt A0ACM8R453).
T2 sequence (A0ACM8R453 1-364): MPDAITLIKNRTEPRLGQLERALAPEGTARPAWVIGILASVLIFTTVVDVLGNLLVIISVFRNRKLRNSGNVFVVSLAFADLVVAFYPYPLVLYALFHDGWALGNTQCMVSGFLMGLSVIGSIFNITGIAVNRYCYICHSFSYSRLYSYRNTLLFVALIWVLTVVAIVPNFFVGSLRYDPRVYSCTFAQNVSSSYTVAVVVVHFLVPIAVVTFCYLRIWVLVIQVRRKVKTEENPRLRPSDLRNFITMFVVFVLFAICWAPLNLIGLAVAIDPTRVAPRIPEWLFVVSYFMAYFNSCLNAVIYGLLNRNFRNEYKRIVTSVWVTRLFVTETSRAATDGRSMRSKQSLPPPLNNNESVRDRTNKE
The description is as above. The class given is cell-based. The settings on record: for RAA (%) MTNR1b (relative agonistic activity): maximal activity as percentage of that of melatonin, Hepa-E1 cells, forskolin, ND: not detected.
Excerpt: as §1, §2

For assay [3], the target named is T3, medaka MTNR1a (Oryzias latipes, UniProt H2LVT7). The description is as above. The class given is cell-based. The settings on record: for RAA (%) MTNR1a (relative agonistic activity): maximal activity as percentage of that of melatonin; for agonistic activity in medaka MTNR1a: reporter assay without melatonin.
T3 sequence (H2LVT7 1-347): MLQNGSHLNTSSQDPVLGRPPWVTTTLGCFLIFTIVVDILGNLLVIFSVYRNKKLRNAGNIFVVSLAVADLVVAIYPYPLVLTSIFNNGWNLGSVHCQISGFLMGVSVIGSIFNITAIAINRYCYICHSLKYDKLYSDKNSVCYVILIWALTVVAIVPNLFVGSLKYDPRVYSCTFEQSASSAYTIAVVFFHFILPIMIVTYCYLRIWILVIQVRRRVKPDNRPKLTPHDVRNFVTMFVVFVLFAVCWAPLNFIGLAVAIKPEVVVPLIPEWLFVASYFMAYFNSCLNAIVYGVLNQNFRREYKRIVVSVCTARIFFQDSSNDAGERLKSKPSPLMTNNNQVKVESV
Excerpt: as §1, §2

The target in assay [4] is T4, medaka MTNR1a-like (MTNR1d) (Oryzias latipes, UniProt A0A3B3HMP3). The assay is described as above. The class given is cell-based. The settings on record: for agonistic activity in medaka MTNR1d: reporter assay without melatonin; for Emax: read-out: RAA (%) MTNR1a-like (relative agonistic activity).
T4 sequence (A0A3B3HMP3 1-354): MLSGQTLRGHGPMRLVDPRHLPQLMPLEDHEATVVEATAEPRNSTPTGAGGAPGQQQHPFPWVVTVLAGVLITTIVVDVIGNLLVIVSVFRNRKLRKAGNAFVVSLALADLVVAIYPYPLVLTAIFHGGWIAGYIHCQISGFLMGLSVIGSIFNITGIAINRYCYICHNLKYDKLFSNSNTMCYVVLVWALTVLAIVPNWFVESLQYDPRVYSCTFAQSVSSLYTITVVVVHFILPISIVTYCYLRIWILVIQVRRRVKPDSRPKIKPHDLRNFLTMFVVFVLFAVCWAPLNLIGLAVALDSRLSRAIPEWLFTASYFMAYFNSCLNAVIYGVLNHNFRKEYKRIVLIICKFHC
Excerpt: as §1, §2

In assay [5] the target is T2, medaka MTNR1b. Briefly: cAMP-responsive (CRE-luc) reporter gene assay, antagonist mode with EC90 melatonin. The class given is cell-based. The settings on record: for AI (%) MTNR1b (antagonistic index): maximal inhibition of melatonin (EC90) effect, 100% = forskolin level, ND: not detected.
Excerpt: as §1
(§3) For MTNR1c, transient transfection was performed as outlined below. […] After 24 h, luciferase activities were measured as described above. Concentration-response curves were fitted and the EC50 or IC50 were calculated using sigmoidal fit in GraphPad Prism5. The relative agonistic activity (RAA) of each reagent was expressed as a percentage of the maximal activity for the reporter induction to that of melatonin. The antagonistic index (AI) of each reagent was expressed as a percentage of the maximal inhibition of the reagent. Maximal inhibition was calculated as the quotient of the subtraction of the luminescence for melatonin from the maximal luminescence for the reagent divided by the maximal inhibition of melatonin. […]

Assay [6] addresses T1, medaka MTNR1c. The description is as above. The class given is cell-based. The settings on record: maximal inhibition of melatonin (EC90) effect; 100% = forskolin level; ND: not detected.
Excerpt: as §1, §3

For assay [7], the target named is T3, medaka MTNR1a. As to conditions: maximal inhibition of melatonin (EC90) effect; 100% = forskolin level; ND: not detected.
Experimental: (§4) Hepa-E1 cells were seeded in 9 cm dishes prior to transfection. Both plasmids, pCRE-luc as well as expression vectors for medaka mtnrs were linearized by PCR and transfected with X-tremeGENE 9 (Roche) according to the manufacturer’s instructions. Stably transfected cells were selected with G418. After selection, each colony was collected by pipetting. Sensitivity for cAMP in each clone was tested by forskolin treatment after seeding into 96-well plates with E-RDF medium (Kyokuto, Tokyo, Japan) and supplemented with 5% dextran-charcoal treated fetal bovine serum. After 24 h the cells were collected, and cellular luciferase activities were measured by luminescence assay with the Steady-Glo Assay System Kit (Promega) according to the manufacturer’s instructions. […]
(§5) Cells derived from a chosen clone or MRNR1c-tranfected cells were seeded at 10^4 cells per well in 96-well luminometer plates. […] After 24 h, luciferase activities were measured as described above. Concentration-response curves were fitted and the EC50 or IC50 were calculated using sigmoidal fit in GraphPad Prism5. […] The antagonistic index (AI) of each reagent was expressed as a percentage of the maximal inhibition of the reagent. Maximal inhibition was calculated as the quotient of the subtraction of the luminescence for melatonin from the maximal luminescence for the reagent divided by the maximal inhibition of melatonin. […]
Assay [8] concerns the target T4, medaka MTNR1a-like (MTNR1d). As to conditions: maximal inhibition of melatonin (EC90) effect; 100% = forskolin level; ND: not detected.
Experimental: as §4, §5
[9] abbreviates: 24 h, listed as 2-Iodomelatonin.
Setting [10] is: stably transfected Hepa-E1 cells, 6.25 × 10^−7 M forskolin, 24 h, NC: not calculable (low activity, curve did not reach maximum), read-out: Potency (M) MTNR1a.
Where [11] appears, read: maximal activity as percentage of that of melatonin, Hepa-E1 cells, forskolin, 24 h, ND: not detected.
[12] abbreviates: stably transfected Hepa-E1 cells, 6.25 × 10^−7 M forskolin, 24 h, NC: not calculable (low activity, curve did not reach maximum), read-out: Potency (M) MTNR1a-like.

On to `COc1ccc2[nH]c(I)c(CCNC(C)=O)c2c1` [2-Iodo melatonin, 2-Iodomelatonin], for which the “RAA (%) MTNR1c (relative agonistic activity)” value at medaka MTNR1c [1] (24 h) is 111.8 ± 3.2%; at medaka MTNR1c [1] (setting [9]) it was 112%. The EC50 at medaka MTNR1c [1] (transiently transfected Hepa-E1 cells, 6.25 × 10^−7 M forskolin, 24 h, NC: not calculable (low activity, curve did not reach maximum), read-out: Potency (M) MTNR1c) was 1.3e-11 M; at medaka MTNR1b [2] (stably transfected Hepa-E1 cells, 6.25 × 10^−7 M forskolin, 24 h, NC: not calculable (low activity, curve did not reach maximum), read-out: Potency (M) MTNR1b) it was 3.9e-11 M; on medaka MTNR1a [3] (setting [10]) it was 2.7e-11 M; in assay [4] (setting [12]), 4e-10 M. Besides, the “RAA (%) MTNR1b (relative agonistic activity)” value at medaka MTNR1b [2] (24 h) is 101.4 ± 2.8%; at medaka MTNR1b [2] (setting [9]), “equivalent to that of melatonin”. Also, the “RAA (%) MTNR1a (relative agonistic activity)” value at medaka MTNR1a [3] (Hepa-E1 cells, forskolin, 24 h, ND: not detected) is on record as 95.8 ± 6.9%; on medaka MTNR1a [3] (Hepa-E1 cells, forskolin, 24 h, ND: not detected, listed as 2-Iodomelatonin) it was “less than 100%”. Also, the “RAA (%) MTNR1a-like (relative agonistic activity)” value in assay [4] (setting [11]) is on record as 69.3 ± 6.8%; in assay [4] (maximal activity as percentage of that of melatonin, Hepa-E1 cells, forskolin, 24 h, ND: not detected, listed as 2-Iodomelatonin) it was 69.3%.

On to `CCC(=O)NC1Cc2ccccc2C(c2ccccc2)C1` (stereo not shown) [4P-PDOT], for which, on medaka MTNR1c [1] (reporter assay without melatonin), the “agonistic effect on MTNR1c” value was “no agonistic effects”. Further, the “agonistic activity in medaka MTNR1a” value on medaka MTNR1a [3] was “exhibited agonistic activity”. Besides, the EC50 at medaka MTNR1a [3] (setting [10]) was 4.7e-09 M; in assay [4] (setting [12]) it was 1.2e-07 M. Also, the “RAA (%) MTNR1a-like (relative agonistic activity)” value in assay [4] (setting [11]) is 68.7% and 68.7 ± 6.4%. In addition, in assay [4], the “agonistic activity in medaka MTNR1d” value was “exhibited agonistic activity”. Also, at medaka MTNR1b [5], the “AI (%) MTNR1b (antagonistic index)” value was 68.3% and 68.3 ± 8.0%. Moreover, the IC50 on medaka MTNR1b [5] (with EC90 melatonin and forskolin, Hepa-E1 cells, 24 h, NC: not calculable, read-out: Potency (M) MTNR1b, antagonist) is 1.9e-07 M.

Consider `CC(=O)NCCc1c(Cc2ccccc2)[nH]c2ccccc12` [Luzindole], for which the Emax stood at 118% at medaka MTNR1c [1] (24 h, 24 h) and 83.1% in assay [4] (setting [11]). Further, the EC50 was over 1e-06 M on medaka MTNR1c [1] (MTNR1c-transfected Hepa-E1 cells, cAMP-responsive reporter, read-out: EC50 MTNR1c); 3.3e-07 M on medaka MTNR1a [3] (setting [10]); over 1e-06 M in assay [4] (MTNR1d (MTNR1a-like) transfected Hepa-E1 cells, cAMP-responsive reporter, read-out: EC50 MTNR1d). In addition, the “RAA (%) MTNR1c (relative agonistic activity)” value on medaka MTNR1c [1] (24 h, 1440 min) was 117.6 ± 11.5%. In addition, the “RAA (%) MTNR1a (relative agonistic activity)” value at medaka MTNR1a [3] (Hepa-E1 cells, forskolin, 24 h, ND: not detected, 1440 min) is 68.2 ± 3.8%; at medaka MTNR1a [3] (Hepa-E1 cells, forskolin, 24 h, ND: not detected, listed as luzindole, 1440 min) it was “less than 100%”. Moreover, the “agonistic activity in medaka MTNR1a” value on medaka MTNR1a [3] was “exhibited agonistic activity”. Besides, the “agonistic activity in medaka MTNR1d” value in assay [4] is listed as “exhibited agonistic activity”. Moreover, the “AI (%) MTNR1c (antagonistic index)” value at medaka MTNR1c [6] was “did not exhibit inhibition”. For the same compound, the “AI (%) MTNR1b (antagonistic index)” value on medaka MTNR1b [5] is recorded as “did not exhibit inhibition”. Moreover, the “AI (%) MTNR1a (antagonistic index)” value at medaka MTNR1a [7] is reported as “did not exhibit inhibition”. For the same compound, the “AI (%) MTNR1a-like (antagonistic index)” value in assay [8] is given as “did not exhibit inhibition”.

For the compound `COc1ccc2[nH]cc(CCNC(C)=O)c2c1` [Melatonin, N-acetyl-5-methoxytryptamine], the EC50 at medaka MTNR1c [1] amounted to 6.2e-11 M; at medaka MTNR1b [2], 1.9e-09 M; on medaka MTNR1a [3] it was 4.8e-10 M; in assay [4] it was 2.2e-08 M. In addition, the Emax was 100 ± 1.8% at medaka MTNR1c [1] (24 h, 24 h); 100 ± 4.4% on medaka MTNR1b [2] (24 h, read-out: RAA (%) MTNR1b (relative agonistic activity)); 100 ± 3.8% on medaka MTNR1a [3] (24 h, read-out: RAA (%) MTNR1a (relative agonistic activity), maximal activity as percentage of that of melatonin, Hepa-E1 cells, forskolin, 24 h, ND: not detected); 100 ± 2.9% in assay [4] (24 h). Besides, the “potency for melatonin of MTNR1c compared with MTNR1d/MTNR1a-like” value on medaka MTNR1c [1] (ratio of potencies between subtypes) is “more than three hundred-fold”.
